Assay results reported in the NIST ThermoML archive (doi:10.1016/j.fluid.2010.10.028).

Experiment: xn = mol fraction of the nth substance listed
Details: Liquid, Vibrating tube method

CC(C)=O [acetone] + CCCCCCC
Details | mass density [kg/m3]
387.31 K, 109790 kPa, x1 = 0.611 | 737.58
387.31 K, 114860 kPa, x1 = 0.611 | 740.58
387.31 K, 119850 kPa, x1 = 0.611 | 743.43
387.31 K, 124850 kPa, x1 = 0.611 | 746.21
387.31 K, 129830 kPa, x1 = 0.611 | 748.89
387.32 K, 1320 kPa, x1 = 0.801 | 639.55
387.32 K, 1540 kPa, x1 = 0.4 | 654.4
387.32 K, 1540 kPa, x1 = 0.8992 | 654.4
387.32 K, 9840 kPa, x1 = 0.801 | 658.47
387.32 K, 14970 kPa, x1 = 0.4 | 681.93
387.32 K, 14970 kPa, x1 = 0.8992 | 681.93
387.32 K, 24870 kPa, x1 = 0.611 | 663.63
387.32 K, 29860 kPa, x1 = 0.611 | 670.27
387.32 K, 34870 kPa, x1 = 0.611 | 676.42
387.32 K, 39850 kPa, x1 = 0.801 | 702.19
387.32 K, 39920 kPa, x1 = 0.4 | 716.49
387.32 K, 39920 kPa, x1 = 0.8992 | 716.49
387.32 K, 44860 kPa, x1 = 0.611 | 687.46
387.32 K, 49850 kPa, x1 = 0.801 | 712.89
387.32 K, 49880 kPa, x1 = 0.4 | 727.19
387.32 K, 49880 kPa, x1 = 0.8992 | 727.19
387.32 K, 54850 kPa, x1 = 0.801 | 717.78
387.32 K, 59840 kPa, x1 = 0.611 | 701.71
387.32 K, 59850 kPa, x1 = 0.4 | 736.82
387.32 K, 59850 kPa, x1 = 0.801 | 722.41
387.32 K, 59850 kPa, x1 = 0.8992 | 736.82
387.32 K, 64820 kPa, x1 = 0.801 | 726.8
387.32 K, 64830 kPa, x1 = 0.4 | 741.3
387.32 K, 64830 kPa, x1 = 0.8992 | 741.3
387.32 K, 69930 kPa, x1 = 0.611 | 710.16
387.32 K, 74800 kPa, x1 = 0.4 | 749.67
387.32 K, 74800 kPa, x1 = 0.8992 | 749.67
387.32 K, 74910 kPa, x1 = 0.611 | 714.05
387.32 K, 74910 kPa, x1 = 0.801 | 735.15
387.32 K, 79790 kPa, x1 = 0.4 | 753.62
387.32 K, 79790 kPa, x1 = 0.8992 | 753.62
387.32 K, 79900 kPa, x1 = 0.611 | 717.8
387.32 K, 84760 kPa, x1 = 0.4 | 757.4
387.32 K, 84760 kPa, x1 = 0.8992 | 757.4
387.32 K, 89750 kPa, x1 = 0.4 | 761.05
387.32 K, 89750 kPa, x1 = 0.8992 | 761.05
387.32 K, 89870 kPa, x1 = 0.611 | 724.87
387.32 K, 94730 kPa, x1 = 0.4 | 764.59
387.32 K, 94730 kPa, x1 = 0.8992 | 764.59
387.32 K, 94840 kPa, x1 = 0.801 | 749.8
387.32 K, 94850 kPa, x1 = 0.611 | 728.19
387.32 K, 99700 kPa, x1 = 0.4 | 768.01
387.32 K, 99700 kPa, x1 = 0.8992 | 768.01
387.32 K, 99840 kPa, x1 = 0.611 | 731.42
387.32 K, 104670 kPa, x1 = 0.4 | 771.32
387.32 K, 104670 kPa, x1 = 0.8992 | 771.32
387.32 K, 104810 kPa, x1 = 0.611 | 734.54
387.32 K, 104810 kPa, x1 = 0.801 | 756.41
387.32 K, 109640 kPa, x1 = 0.4 | 774.53
387.32 K, 109640 kPa, x1 = 0.8992 | 774.53
387.32 K, 109780 kPa, x1 = 0.801 | 759.56
387.32 K, 114600 kPa, x1 = 0.4 | 777.64
387.32 K, 114600 kPa, x1 = 0.8992 | 777.64
387.32 K, 119580 kPa, x1 = 0.4 | 780.68
387.32 K, 119580 kPa, x1 = 0.8992 | 780.68
387.32 K, 119830 kPa, x1 = 0.801 | 765.63
387.32 K, 124530 kPa, x1 = 0.4 | 783.61
387.32 K, 124530 kPa, x1 = 0.8992 | 783.61
387.32 K, 129840 kPa, x1 = 0.4 | 786.68
387.32 K, 129840 kPa, x1 = 0.8992 | 786.68
387.33 K, 1300 kPa, x1 = 0.7024 | 628.97
387.33 K, 4820 kPa, x1 = 0.7024 | 637.48
387.33 K, 4860 kPa, x1 = 0.492 | 621.33
387.33 K, 4860 kPa, x1 = 0.801 | 648.03
387.33 K, 5010 kPa, x1 = 0.4 | 662.6
387.33 K, 5010 kPa, x1 = 0.8992 | 662.6
387.33 K, 9820 kPa, x1 = 0.7024 | 647.9
387.33 K, 9850 kPa, x1 = 0.492 | 631.47
387.33 K, 10000 kPa, x1 = 0.4 | 672.89
387.33 K, 10000 kPa, x1 = 0.8992 | 672.89
387.33 K, 14850 kPa, x1 = 0.492 | 640.29
387.33 K, 14860 kPa, x1 = 0.801 | 667.65
387.33 K, 19810 kPa, x1 = 0.7024 | 665.07
387.33 K, 19860 kPa, x1 = 0.801 | 675.81
387.33 K, 19960 kPa, x1 = 0.4 | 690.05
387.33 K, 19960 kPa, x1 = 0.8992 | 690.05
387.33 K, 24860 kPa, x1 = 0.801 | 683.23
387.33 K, 24940 kPa, x1 = 0.4 | 697.46
387.33 K, 24940 kPa, x1 = 0.8992 | 697.46
387.33 K, 29820 kPa, x1 = 0.7024 | 679.2
387.33 K, 29830 kPa, x1 = 0.801 | 690
387.33 K, 29940 kPa, x1 = 0.4 | 704.27
387.33 K, 29940 kPa, x1 = 0.8992 | 704.27
387.33 K, 34860 kPa, x1 = 0.801 | 696.35
387.33 K, 34930 kPa, x1 = 0.4 | 710.58
387.33 K, 34930 kPa, x1 = 0.8992 | 710.58
